Measured values as given in patent US10927125B2, “Substituted cinnolines as inhibitors of KRAS G12C” (Araxes Pharma LLC, priority 2013, dated 2021).

Target: T1, KRAS G12C 1-169, his-tagged protein, GDP-loaded (Homo sapiens, UniProt P01116, G12C)
T1 construct: KRAS G12C 1-169, his-tagged protein, GDP-loaded
Test: Biochemical assay: covalent binding of compounds to KRAS G12C, analysed by mass spectrometry
Protocol: Compounds were tested for activity as follows:
Compounds were diluted to 50× final test concentration in DMSO in 96-well storage plates. […] Reactions were mixed carefully and thoroughly by pipetting up/down with a 200 μl multi-channel pipettor. The plate was sealed well with aluminum plate seal, and stored in drawer at room temperature for 30 min, 2 hour or 24 hrs. 51 μl of 2% formic acid (Fisher cat # A117) in DI H2O was then added to each well followed by mixing with a pipette. The plate was then resealed with aluminum seal and stored on dry ice until analyzed as described below.
The above described assays were analyzed by mass spectrometry according to the following procedure:
The MS instrument is set to positive polarity, 2 GHz resolution, and low mass (1700) mode and allowed to equilibrate for 30 minutes. The instrument is then calibrated, switched to acquisition mode and the appropriate method loaded.
After another 30 minute equilibration time, a blank batch (i.e., buffer) is run to ensure equipment is operating properly. The samples are thawed at 37° C. for 10 minutes, briefly centrifuged, and transfer to the bench top. Wells A1 and H12 are spiked with 1 uL 500 uM internal standard peptide, and the plates centrifuged at 2000×g for 5 minutes. The method is then run and masses of each individual well recorded.
The masses (for which integration data is desired) for each well are pasted into the platemap and exported from the analysis. Masses for the internal standards are exported as well. The data at 50 ppm is extracted for the +19 charge state, and identity of well A1 is assigned using the internal standard spike and integrated. Peak data is exported as a TOF list and the above steps are repeated individually, for the +20, 21, 22, 23, 24, and 25 charge states.

[1] = binding measured at 30 min (compounds 247-375)
[2] = binding measured at 2 h (compounds 48-246)

T1 sequence (P01116 1-169 isoform P01116-2 G12C): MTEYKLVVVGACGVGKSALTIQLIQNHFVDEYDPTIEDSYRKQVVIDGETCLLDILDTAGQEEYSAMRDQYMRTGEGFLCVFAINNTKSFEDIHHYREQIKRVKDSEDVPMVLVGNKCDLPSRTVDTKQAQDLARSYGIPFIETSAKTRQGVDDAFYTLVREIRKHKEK

SMILES: C=CC(=O)N1CCN(c2cnnc3cc(-c4cc(O)cc5ccccc45)c(C(F)(F)F)cc23)CC1 [Compound 351, 1-(4-(7-(3-hydroxynaphthalen-1-yl)-6-(trifluoromethyl)cinnolin-4-yl)piperazin-1-yl)prop-2-en-1-one]
- Binding % [1]: ++++ (++++ indicates binding activity greater than 75%)

SMILES: C=CC(=O)N1CCN(c2nc(NCCc3nccn3C)nc3c(F)c(-c4c(C)ccc5[nH]ncc45)c(Cl)cc23)CC1 [Compound 352, 1-(4-(6-chloro-8-fluoro-2-(2-(1-methyl-1H-imidazol-2-yl)ethylamino)-7-(5-methyl-1H-indazol-4-yl)quinazolin-4-yl)piperazin-1-yl)prop-2-en-1-one]
- Binding % [1]: ++++ (++++ indicates binding activity greater than 75%)

SMILES: C=CC(=O)N1CCN(c2ncnc3c(F)c(-c4cc(O)cc5ccccc45)c(Cl)cc23)CC1CN(C)C (stereo not shown) [Compound 346, 1-(4-(6-chloro-8-fluoro-7-(3-hydroxynaphthalen-1-yl)quinazolin-4-yl)-2-((dimethylamino)meth-yl)piperazin-1-yl)prop-2-en-1-one]
- Binding % [1]: ++++ (++++ indicates binding activity greater than 75%)

SMILES: C=CC(=O)N1CCN(c2nc(Oc3cnn(C)c3)nc3c(F)c(-c4c(C)ccc5[nH]ncc45)c(Cl)cc23)CC1 [Compound 375, 1-(4-(6-chloro-8-fluoro-7-(5-methyl-1H-indazol-4-yl)-2-(1-methyl-1H-pyrazol-4-yloxy)quinazolin-4-yl)piperazin-1-yl)prop-2-en-1-one]
- Binding % [1]: +++ (+++ indicates binding activity greater than 50% and up to 75%)

SMILES: C=CC(=O)N1CCN(c2cnnc3cc(-c4ccccc4F)c(Cl)cc23)CC1 [Compound 159, 1-(4-(6-chloro-7-(2-fluorophenyl)cinnolin-4-yl)piperazin-1-yl)prop-2-en-1-one]
- Binding % [2]: +++ (+++ indicates binding activity greater than 50% and up to 75%)

SMILES: C=CC(=O)N1CCN(c2ncnc3c(F)c(-c4c(F)ccc5c(C)n[nH]c45)c(Cl)cc23)CC1 [Compound 359, 1-(4-(6-chloro-8-fluoro-7-(6-fluoro-3-methyl-1H-indazol-7-yl)quinazolin-4-yl)piperazin-1-yl)prop-2-en-1-one]
- Binding % [1]: ++++ (++++ indicates binding activity greater than 75%)

SMILES: C=CC(=O)N1CCN(c2nc(OCCN3CCCC3)nc3c(F)c(-c4c(C)ccc5[nH]ncc45)c(Cl)cc23)CC1 [Compound 358, 1-(4-(6-chloro-8-fluoro-7-(5-methyl-1H-indazol-4-yl)-2-(2-(pyrrolidin-1-yl)ethoxy)quinazolin-4-yl)piperazin-1-yl)prop-2-en-1-one]
- Binding % [1]: ++++ (++++ indicates binding activity greater than 75%)

SMILES: C=CC(=O)N1CCN(c2nc(NC)nc3c(F)c(-c4cc(O)cc5ccccc45)c(Cl)cc23)CC1 [Compound 345, 1-(4-(6-chloro-8-fluoro-7-(3-hydroxynaphthalen-1-yl)-2-(methylamino)quinazolin-4-yl)piperazin-1-yl)prop-2-en-1-one]
- Binding % [1]: ++++ (++++ indicates binding activity greater than 75%)

SMILES: C=CC(=O)N1CCN(c2ncnc3cc(-c4cc(O)c(F)cc4F)c(Cl)cc23)CC1 [Compound 206, 1-(4-(6-chloro-7-(2,4-difluoro-5-hydroxyphenyl)quinazolin-4-yl)piperazin-1-yl)prop-2-en-1-one]
- Binding % [2]: +++ (+++ indicates binding activity greater than 50% and up to 75%)

SMILES: C=CC(=O)N1CCN(c2nc(OCCN3CCN(C)CC3)nc3c(F)c(-c4c(C)ccc5[nH]ncc45)c(Cl)cc23)CC1 [Compound 373, 1-(4-(6-chloro-8-fluoro-7-(5-methyl-1H-indazol-4-yl)-2-(2-(4-methylpiperazin-1-yl)ethoxy)quinazolin-4-yl)piperazin-1-yl)prop-2-en-1-one]
- Binding % [1]: +++ (+++ indicates binding activity greater than 50% and up to 75%)

SMILES: C=CC(=O)N1CCN(c2nc(OCCc3nccn3C)nc3c(F)c(-c4c(C)ccc5[nH]ncc45)c(Cl)cc23)CC1 [Compound 369, 1-(4-(6-chloro-8-fluoro-2-(2-(1-methyl-1H-imidazol-2-yl)ethoxy)-7-(5-methyl-1H-indazol-4-yl)quinazolin-4-yl)piperazin-1-yl)prop-2-en-1-one]
- Binding % [1]: ++++ (++++ indicates binding activity greater than 75%)

SMILES: C=CC(=O)N1CCN(c2nc(C)nc3cc(Cl)c(-c4ccc(Cl)cc4)cc23)CC1 [Compound 50, 1-(4-(7-chloro-6-(4-chlorophenyl)-2-methylquinazolin-4-yl)piperazin-1-yl)prop-2-en-1-one]
- Binding % [2]: + (+ indicates binding activity from 5% to 25%)

SMILES: C=CC(=O)N1CCC(n2c(=O)cnc3cc(-c4ccc(F)cc4F)c(Cl)cc32)CC1 [Compound 151, 1-(1-acryloylpiperidin-4-yl)-7-chloro-6-(2,4-difluorophenyl)quinoxalin-2(1H)-one]
- Binding % [2]: + (+ indicates binding activity from 5% to 25%)

SMILES: C=CC(=O)N1CCN(c2cnnc3cc(-c4c(C)ccc5[nH]ncc45)c(C(F)(F)F)cc23)CC1 [Compound 350, 1-(4-(7-(5-methyl-1H-indazol-4-yl)-6-(trifluoromethyl)cinnolin-4-yl)piperazin-1-yl)prop-2-en-1-one]
- Binding % [1]: ++++ (++++ indicates binding activity greater than 75%)

SMILES: C=CC(=O)N1CCN(c2nc(NC3CCN(C)CC3)nc3c(F)c(-c4c(C)ccc5[nH]ncc45)c(Cl)cc23)CC1 [Compound 363, 1-(4-(6-chloro-8-fluoro-7-(5-methyl-1H-indazol-4-yl)-2-(1-methylpiperidin-4-ylamino)quinazolin-4-yl)piperazin-1-yl)prop-2-en-1-one]
- Binding % [1]: ++++ (++++ indicates binding activity greater than 75%)

SMILES: C=CC(=O)N1CCN(c2cc(=O)[nH]c3cc(-c4c(C)ccc5[nH]ncc45)c(Cl)cc23)CC1 [Compound 326, 4-(4-acryloylpiperazin-1-yl)-6-chloro-7-(5-methyl-1H-indazol-4-yl)quinolin-2(1H)-one]
- Binding % [1]: + (+ indicates binding activity from 5% to 25%)

SMILES: C=CC(=O)N1CCN(c2nc(NC3CCN(CC(F)(F)F)C3)nc3c(F)c(-c4cc(O)cc5ccccc45)c(Cl)cc23)CC1 (stereo not shown) [Compound 349, 1-(4-(6-chloro-8-fluoro-7-(3-hydroxynaphthalen-1-yl)-2-(1-(2,2,2-trifluoroethyl)pyrrolidin-3-ylamino)quinazolin-4-yl)piperazin-1-yl)prop-2-en-1-one]
- Binding % [1]: +++ (+++ indicates binding activity greater than 50% and up to 75%)

SMILES: C=CC(=O)N1CCN(c2nc(CN(C)C)nc3c(F)c(-c4c(C)ccc5[nH]ncc45)c(Cl)cc23)CC1 [Compound 254, 1-(4-(6-chloro-2-((dimethylamino)methyl)-8-fluoro-7-(5-methyl-1H-indazol-4-yl)quinazolin-4-yl)piperazin-1-yl)prop-2-en-1-one]
- Binding % [1]: +++ (+++ indicates binding activity greater than 50% and up to 75%)

SMILES: C=CC(=O)N1CCN(c2nc(NC3CCOC3)nc3c(F)c(-c4c(C)ccc5[nH]ncc45)c(Cl)cc23)CC1 (stereo not shown) [Compound 347, 1-(4-(6-chloro-8-fluoro-7-(5-methyl-1H-indazol-4-yl)-2-(tetrahydrofuran-3-ylamino)quinazolin-4-yl)piperazin-1-yl)prop-2-en-1-one]
- Binding % [1]: ++++ (++++ indicates binding activity greater than 75%)

SMILES: C=CC(=O)N1CCN(c2ncnc3cc(-c4c(O)cccc4F)c(Cl)c(F)c23)CC1 [Compound 343, 1-(4-(6-chloro-5-fluoro-7-(2-fluoro-6-hydroxyphenyl)quinazolin-4-yl)piperazin-1-yl)prop-2-en-1-one]
- Binding % [1]: +++ (+++ indicates binding activity greater than 50% and up to 75%)

SMILES: C=CC(=O)N1CCN(c2ncnc3c(F)c(-c4c(O)cccc4F)c(Cl)cc23)CC1 [Compound 370, (R)-1-(4-(6-chloro-8-fluoro-7-(2-fluoro-6-hydroxyphenyl)quinazolin-4-yl)piperazin-1-yl)prop-2-en-1-one]
- Binding % [1]: + (+ indicates binding activity from 5% to 25%)

SMILES: C=CC(=O)N1CCN(c2ncnc3c(F)c(-c4c(F)ccc5cn[nH]c45)c(Cl)cc23)CC1 [Compound 368, 1-(4-(6-chloro-8-fluoro-7-(6-fluoro-1H-indazol-7-yl)quinazolin-4-yl)piperazin-1-yl)prop-2-en-1-one]
- Binding % [1]: ++++ (++++ indicates binding activity greater than 75%)

SMILES: C=CC(=O)N1CCN(c2ncnc3c(F)c(-c4c(O)cccc4F)c(Cl)cc23)CC1 [Compound 353, (S)-1-(4-(6-chloro-8-fluoro-7-(2-fluoro-6-hydroxyphenyl)quinazolin-4-yl)piperazin-1-yl)prop-2-en-1-one]
- Binding % [1]: ++++ (++++ indicates binding activity greater than 75%)

SMILES: C=CC(=O)N1CCN(c2ncnc3c(F)c(-c4c(F)cccc4CN(C)C)c(Cl)cc23)CC1 [Compound 362, 1-(4-(6-chloro-7-(2-((dimethylamino)methyl)-6-fluorophenyl)-8-fluoroquinazolin-4-yl)piperazin-1-yl)prop-2-en-1-one]
- Binding % [1]: ++ (++ indicates binding activity greater than 25% and up to 50%)

SMILES: C=CC(=O)N1CCN(c2ncnc3cc(N4CCCCC4)c(Cl)cc23)CC1 [Compound 80, 1-(4-(6-chloro-7-(piperidin-1-yl)quinazolin-4-yl)piperazin-1-yl)prop-2-en-1-one]
- Binding % [2]: + (+ indicates binding activity from 5% to 25%)
